Assay results reported in paper PMC9732152 (The Laryngoscope, 2022).
“Also recorded” adds a separate entry of the source. Structures can show the parent of a compound that is named as a salt. Square brackets hold non-standard residues; d marks the D form. Peptide text beside a SMILES is read from it. * marks the point of attachment. Sta = CC(C)C[C@H](N)[C@@H](O)CC(=O)O; Isovaleryl = CC(C)CC(=O)*

What was measured:
porcine pepsin A = porcine pepsin A (Sus scrofa, UniProt P00791); assay type: binding; conditions: 100nM pepstatin-Alexa647 probe, 0.03U/ul porcine pepsin A, 37.5% DMSO, 0.1 M HCl pH 1
porcine pepsin = porcine pepsin (Sus scrofa, UniProt P00791); assay: Fluorescence polarization peptic activity assay with casein-Alexa647 substrate; assay type: biochemical; conditions: for inhibition of pepsin (IC50): 200nM casein-Alexa647 probe, 0.01U/μL pepsin, 5% DMSO, 0.1 M HCl pH 1
[1] = cited from earlier work
[2] = system: pepsin-mediated laryngeal damage; assay: Laryngopharyngeal reflux mouse model; assay type: in vivo, female Jackson A/J mice
pepsin = conditions: cited from earlier work
[3] = aerosol with saline (solvent) instillation
[4] = gavage with saline (solvent) instillation

Chain of porcine pepsin (P00791 60-385): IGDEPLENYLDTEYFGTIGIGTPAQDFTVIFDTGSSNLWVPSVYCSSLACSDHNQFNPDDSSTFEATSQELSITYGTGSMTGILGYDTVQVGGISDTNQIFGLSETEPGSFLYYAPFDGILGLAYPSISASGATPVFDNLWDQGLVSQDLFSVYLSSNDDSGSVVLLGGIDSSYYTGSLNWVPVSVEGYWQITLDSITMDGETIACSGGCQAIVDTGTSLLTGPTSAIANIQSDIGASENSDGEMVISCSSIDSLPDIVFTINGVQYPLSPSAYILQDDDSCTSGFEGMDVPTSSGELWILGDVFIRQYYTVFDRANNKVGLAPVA
Chain of porcine pepsin A (P00791 60-385): as above

SMILES	binding to pepsin (porcine pepsin A)	inhibition of pepsin (IC50) (porcine pepsin)	known side effects and interactions [1]	IC50 for pepsin compared with the other inhibitors (porcine pepsin; comparison among the HIV protease inhibitors tested)	laryngeal epithelial histology/reactivity elicited by the drug itself [2, 3]	apoptosis in laryngeal epithelium ([2]; aerosol, inhaled mass 12mg/kg/day darunavir, pepsin-pH7 instillation)	laryngeal epithelial histology/reactivity elicited by the drug itself [2, 4]	affinity for pepsin (pepsin)
CC(C)CN(C[C@@H](O)[C@H](Cc1ccccc1)NC(=O)O[C@H]1CCOC1)S(=O)(=O)c1ccc(N)cc1 [amprenavir]	bound	inhibited pepsin at low micromolar concentrations; also recorded: low micromolar range	minimal side effects (diarrhea, nausea and vomiting)					
CC(C)CN(C[C@@H](O)[C@H](Cc1ccccc1)NC(=O)O[C@H]1CO[C@H]2OCC[C@H]21)S(=O)(=O)c1ccc(N)cc1 [darunavir, darunavir ethanolate]	bound	inhibited pepsin at low micromolar concentrations; also recorded: low micromolar range		lowest IC50	absent	no apoptosis was observed	mild reactivity (rare intraepithelial lymphocytes)	
CC(C)CN(C[C@@H](OP(=O)(O)O)[C@H](Cc1ccccc1)NC(=O)O[C@H]1CCOC1)S(=O)(=O)c1ccc(N)cc1 [fosamprenavir]					normal histology		normal histology	
CC(C)CC(=O)N[C@H](C(=O)N[C@H](C(=O)N[C@@H](CC(C)C)[C@@H](O)CC(=O)N[C@@H](C)C(=O)N[C@@H](CC(C)C)[C@@H](O)CC(=O)O)C(C)C)C(C)C [pepstatin, pepstatin A] (Isovaleryl-VV[Sta]A[Sta]-OH)								sub-nanomolar
CC(C)c1nc(CN(C)C(=O)N[C@H](C(=O)N[C@@H](Cc2ccccc2)C[C@H](O)[C@H](Cc2ccccc2)NC(=O)OCc2cncs2)C(C)C)cs1 [ritonavir]	bound		minimal side effects (diarrhea, nausea and vomiting)					
CC(C)(C)NC(=O)[C@@H]1C[C@@H]2CCCC[C@@H]2CN1C[C@@H](O)[C@H](Cc1ccccc1)NC(=O)[C@H](CC(N)=O)NC(=O)c1ccc2ccccc2n1 [saquinavir, saquinavir mesylate]	bound	inhibited pepsin at low micromolar concentrations; also recorded: low micromolar range	QT prolongation, heart block, high blood lipids and liver problems					
